Experimental data taken from patent US9365540B2, “Benzimidazole derivatives as MCH receptor antagonists” (Takeda Pharmaceutical Company Limited, priority 2012, dated 2016).

Molecular target: T1, human MCH receptor 1 (MCHR1) (Homo sapiens, UniProt Q99705)
T1 construct: expressed in transfected cells; host or cells: CHO cell clone 57 (membrane fraction)
Assay: human MCH receptor 1 (MCHR1) competitive binding assay with [125I]-MCH(4-19)
Settings: test compound 0.1 μM, human MCHR1-expressing CHO cell membrane fraction; for inhibition at 0.1 µM: read-out: Binding inhibition rate % (0.1 μM)
Description: Determination of human MCH receptor 1 (MCHR1) competitive inhibitory activity of test compound using binding assay
1. Preparation of Membrane Fraction
Using human MCHR1 (=SLC-1 receptor)-expressing CHO cell clone 57 described in WO01/82925, MCHR1-expressing CHO cell membrane fractions were prepared by the following method.
In phosphate buffered saline (pH 7.4) supplemented with 5 mM EDTA (ethylenediaminetetraacetic acid) were respectively suspended human MCHR1-expressing CHO cells (1×10^8 cells) and centrifuged. Homogenate buffer (10 mL, 10 mM NaHCO3, 5 mM EDTA, pH 7.5, 0.5 mM PMSF (phenylmethylsulfonyl fluoride), 20 mg/L leupeptin, 4 mg/L E-64, 1 mg/L pepstatin A) was added to the pellets of the cells and, using Polytron Homogenizer, the mixture was homogenated. The supernatant obtained after centrifugation at 400×g for 10 min was further centrifuged at 100,000×g for 1 hr to give precipitate of the membrane fraction. The precipitate were suspended in 2 mL of assay buffer [20 mM Tris-HCl (pH 7.5), 5 mM EDTA, 0.5 mM PMSF, 20 mg/L leupeptin, 4 mg/L E-64, 1 mg/L pepstatin A]. The membrane fractions were suspended in assay buffer to a protein concentration of 2 mg/mL, and after dispensing, preserved at −80° C. and used upon thawing each time when in use.
The MCHR1 ligand binding inhibitory activity of the test compound was determined as follows.
An MCHR1-expressing CHO cell membrane fraction (173 μL) diluted with an assay buffer was dispensed to a 96 well polypropylene plate (3363, Corning). DMSO solution (2 μL), 33 μM cold MCH(1-19) diluted with DMSO solution (2 μL), or a test compound solution diluted with DMSO solution to various concentrations (2 μL) was added, and lastly, [^125I]-MCH (4-19) diluted with assay buffer (hereinafter, sometimes to be referred to as “hot MCH”, 25 μL) was added to each well. The mixture was reacted with stirring at room temperature for 1 hr, and the plate was set on FilterMate Harvester (PerkinElmer). Using a treating glass filter plate (GF/C, PerkinElmer) with polyethyleneimine, which had been previously set, the plate was suction-filtered and washed three times with washing buffer (50 mM Tris-HCl buffer pH 7.5). The glass filter plate was dried, MicroScinti0 (PerkinElmer) was added at 25 μL/well, and the resulting radioactivity was measured by TopCount liquid scintillation counter (PerkinElmer). The binding inhibition rate of the test compound was calculated by the following formula. Binding inhibition (%)=100−(radioactivity upon addition of test compound and hot MCH−radioactivity upon addition of cold MCH and hot MCH solution)/(radioactivity upon addition of DMSO solution and hot MCH−radioactivity upon addition of cold MCH and hot MCH solution)×100
The binding inhibition rates (%) of test compounds (0.1 μM) as measured using human MCHR1-expressing CHO cell are shown in Table 2.

T1 sequence (Q99705 whole entry): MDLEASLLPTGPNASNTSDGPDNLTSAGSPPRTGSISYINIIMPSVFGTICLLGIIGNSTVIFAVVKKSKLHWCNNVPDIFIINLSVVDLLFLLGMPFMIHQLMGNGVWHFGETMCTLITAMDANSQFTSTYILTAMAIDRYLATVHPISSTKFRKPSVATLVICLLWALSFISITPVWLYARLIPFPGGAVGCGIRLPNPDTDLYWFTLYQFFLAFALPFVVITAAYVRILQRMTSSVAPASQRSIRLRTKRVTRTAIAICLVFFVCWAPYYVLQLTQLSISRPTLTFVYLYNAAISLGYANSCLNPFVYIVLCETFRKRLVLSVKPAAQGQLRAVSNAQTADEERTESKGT

Row | Structure (SMILES) | inhibition at 0.1 µM [%] | Binding inhibition rate % (0.1 μM) [%]
1 | CCCc1nc2ccc(-n3ccc(OCc4ccccc4)cc3=O)cc2n1C [Example 126, 4-(Benzyloxy)-1-(1-methyl-2-propyl-1H-benzimidazol-6-yl)pyridin-2(1H)-one] | 65 | 
2 | Cc1ocnc1-c1nc2ccc(-n3ccc(OCc4ccc(F)cc4)cc3=O)cc2n1C [Example 145, 4-((4-Fluorobenzyl)oxy)-1-(1-methyl-2-(5-methyl-1,3-oxazol-4-yl)-1H-benzimidazol-6-yl)pyridin-2(1H)-one] | 52 | 
3 | Cc1c(C2CC2)nc2ccc(-n3ccc(OCc4ccc(F)c(F)c4)cc3=O)cn12 [Example 146, 1-(2-Cyclopropyl-3-methylimidazo[1,2-a]pyridin-6-yl)-4-((3,4-difluorobenzyl)oxy)pyridin-2(1H)-one] | 77 | 
4 | Cc1c(C2CC2)nc2ccc(-n3ccc(OCc4ccc(Cl)c(F)c4)cc3=O)cn12 [Example 151, 4-((4-Chloro-3-fluorobenzyl)oxy)-1-(2-cyclopropyl-3-methylimidazo[1,2-a]pyridin-6-yl)pyridin-2(1H)-one] | 73 | 
5 | Cc1nc2ccc(-n3ccc(OCc4ccc(F)cc4)cc3=O)cn2c1C [Example 162, 1-(2,3-Dimethylimidazo[1,2-a]pyridin-6-yl)-4-((4-fluorobenzyl)oxy)pyridin-2(1H)-one] | 57 | 
6 | Cc1nc2ccc(-n3ccc(OCc4ccccc4)cc3=O)cn2c1C [Example 163, 4-(Benzyloxy)-1-(2,3-dimethylimidazo[1,2-a]pyridin-6-yl)pyridin-2(1H)-one] | 49 | 
7 | Cc1nc2ccc(-n3ccc(OCc4csc(Cl)c4)cc3=O)cn2c1C [Example 165, 4-((5-Chlorothiophen-3-yl)methoxy)-1-(2,3-dimethylimidazo[1,2-a]pyridin-6-yl)pyridin-2(1H)-one] | 81 | 
8 | Cc1nc2ccc(-n3ccc(OCc4ccc(Cl)s4)cc3=O)cn2c1C [Example 166, 4-((5-Chlorothiophen-2-yl)methoxy)-1-(2,3-dimethylimidazo[1,2-a]pyridin-6-yl)pyridin-2(1H)-one] | 64 | 
9 | CCc1nc2ccc(-n3ccc(OCc4csc(Cl)c4)cc3=O)cn2c1C [Example 172, 4-((5-Chlorothiophen-3-yl)methoxy)-1-(2-ethyl-3-methylimidazo[1,2-a]pyridin-6-yl)pyridin-2(1H)-one] | 72 | 
10 | Cc1c(C2CC2C#N)nc2ccc(-n3ccc(OCc4ccc(Cl)cc4)cc3=O)cn12 (centres unmarked) [Example 174, 2-(6-(4-((4-Chlorobenzyl)oxy)-2-oxopyridin-1(2H)-yl)-3-methylimidazo[1,2-a]pyridin-2-yl)cyclopropanecarbonitrile] | 45 | 
11 | Cc1c(C2CC2)nc2ccc(-n3ccc(OCc4csc(C(F)F)c4)cc3=O)cn12 [Example 184, 1-(2-Cyclopropyl-3-methylimidazo[1,2-a]pyridin-6-yl)-4-((5-(difluoromethyl)-3-thienyl)methoxy)pyridin-2 (1H)-one] | 82 | 
12 | CCc1ncoc1-c1nc2ccc(-n3ccc(OCc4ccc(F)cc4)cc3=O)cc2n1C [Example 201, 1-(2-(4-Ethyl-1,3-oxazol-5-yl)-1-methyl-1H-benzimidazol-6-yl)-4-((4-fluorobenzyl)oxy)pyridin-2(1H)-one] | 84 | 
13 | CCc1nc2ccc(-n3ccc(OCc4ccc(C(F)(F)F)s4)cc3=O)cc2n1C [Example 233, 1-(2-Ethyl-1-methyl-1H-benzimidazol-6-yl)-4-((5-(trifluoromethyl)-2-thienyl)methoxy)pyridin-2(1H)-one] | 67 | 

Other lines, results leading:

Row | inhibition at 0.1 µM [%] | Binding inhibition rate % (0.1 μM) [%] | Structure (SMILES)
14 | 56 |  | Cn1c(C2CC2)nc2ccc(-n3ccc(OCc4cc(F)cc(F)c4)cc3=O)cc21 [Example 119, 1-(2-Cyclopropyl-1-methyl-1H-benzimidazol-6-yl)-4-((3,5-difluorobenzyl)oxy)pyridin-2(1H)-one]
15 | 88 |  | Cc1c(C2CC2)nc2ccc(-n3ccc(OCc4ccc(Cl)s4)cc3=O)cn12 [Example 139, 4-((5-Chloro-2-thienyl)methoxy)-1-(2-cyclopropyl-3-methylimidazo[1,2-a]pyridin-6-yl)pyridin-2(1H)-one]
16 | 69 |  | Cc1ccc(COc2ccn(-c3ccc4nc(C5CC5)n(C)c4c3)c(=O)c2)cc1 [Example 142, 1-(2-Cyclopropyl-1-methyl-1H-benzimidazol-6-yl)-4-((4-methylbenzyl)oxy)pyridin-2(1H)-one]
17 | 94 |  | Cn1c(C2CC2C(C)(C)O)nc2ccc(-n3ccc(OCc4ccc(Cl)cc4)cc3=O)cc21 (stereo not drawn) [Example 153, 4-((4-Chlorobenzyl)oxy)-1-(2-((1R*,2S*)-2-(2-hydroxypropan-2-yl)cyclopropyl)-1-methyl-1H-benzimidazol-6-yl)pyridin-2(1H)-one]
18 |  | 91 | Cn1c(C2CC2C(C)(C)O)nc2ccc(-n3ccc(OCc4ccc(Cl)cc4)cc3=O)cc21 (stereo not drawn) [Example 154, 4-((4-Chlorobenzyl)oxy)-1-(2-((1R*,2S*)-2-(2-hydroxypropan-2-yl)cyclopropyl)-1-methyl-1H-benzimidazol-6-yl)pyridin-2(1H)-one]
19 | 85 |  | Cn1c(C2CC2C(C)(C)F)nc2ccc(-n3ccc(OCc4ccc(Cl)cc4)cc3=O)cc21 (stereo not drawn) [Example 207, 4-((4-Chlorobenzyl)oxy)-1-(2-((1R*,2S*)-2-(2-fluoropropan-2-yl)cyclopropyl)-1-methyl-1H-benzimidazol-6-yl)pyridin-2(1H)-one]
20 | 39 |  | CCC(=O)c1nc2ccc(-n3ccc(OCc4ccc(Cl)cc4)cc3=O)cc2n1C [Example 208, 4-((4-Chlorobenzyl)oxy)-1-(1-methyl-2-propanoyl-1H-benzimidazol-6-yl)pyridin-2(1H)-one]
21 |  | 89 | Cn1c(C2CC2C(C)(C)F)nc2ccc(-n3ccc(OCc4ccc(Cl)cc4)cc3=O)cc21 (stereo not drawn) [Example 209, 4-((4-Chlorobenzyl)oxy)-1-(2-((1R*,2S*)-2-(2-fluoropropan-2-yl)cyclopropyl)-1-methyl-1H-benzimidazol-6-yl)pyridin-2(1H)-one]
22 | 51 |  | CCc1nc2ccc(-n3ccc(OCc4ccccc4)cc3=O)cc2n1C [Example 210, 4-(Benzyloxy)-1-(2-ethyl-1-methyl-1H-benzimidazol-6-yl)pyridin-2(1H)-one]
23 | 76 |  | CCc1nc2ccc(-n3ccc(OCc4ccc(Cl)s4)cc3=O)cc2n1C [Example 211, 4-((5-Chlorothiophen-2-yl)methoxy)-1-(2-ethyl-1-methyl-1H-benzimidazol-6-yl)pyridin-2(1H)-one]
24 | 79 |  | Cc1cc(COc2ccn(-c3ccc4nc(C5CC5)n(C)c4c3)c(=O)c2)cs1 [Example 213, 1-(2-Cyclopropyl-1-methyl-1H-benzimidazol-6-yl)-4-((5-methyl-3-thienyl)methoxy)pyridin-2(1H)-one]
25 | 88 |  | Cn1c(C2CC2)nc2ccc(-n3ccc(OCc4csc(F)c4)cc3=O)cc21 [Example 216, 1-(2-Cyclopropyl-1-methyl-1H-benzimidazol-6-yl)-4-((5-fluoro-3-thienyl)methoxy)pyridin-2(1H)-one]
26 | 73 |  | Cn1c(C2CC2)nc2ccc(-n3ccc(OCc4ccsc4F)cc3=O)cc21 [Example 217, 1-(2-Cyclopropyl-1-methyl-1H-benzimidazol-6-yl)-4-((2-fluoro-3-thienyl)methoxy)pyridin-2(1H)-one]
27 | 58 |  | Cn1c(C2CC2)nc2ccc(-n3ccc(OCc4ccsc4Cl)cc3=O)cc21 [Example 221, 4-((2-Chloro-3-thienyl)methoxy)-1-(2-cyclopropyl-1-methyl-1H-benzimidazol-6-yl)pyridin-2(1H)-one]
28 | 45 |  | CCc1nc2ccc(-n3ccc(OCc4ccc(Cl)c(F)c4)cc3=O)cc2n1C [Example 229, 4-((4-Chloro-3-fluorobenzyl)oxy)-1-(2-ethyl-1-methyl-1H-benzimidazol-6-yl)pyridin-2(1H)-one]
29 | 73 |  | Cn1c(C2CC2)nc2ccc(-n3ccc(OCc4cc(Br)c(Cl)s4)cc3=O)cc21 [Example 232, 4-((4-Bromo-5-chloro-2-thienyl)methoxy)-1-(2-cyclopropyl-1-methyl-1H-benzimidazol-6-yl)pyridin-2(1H)-one]
